Values of other authors as cited in patent publication US20220241275A1, “TARGETED TREATMENT OF CANCERS WITH DYSREGULATED FIBROBLAST GROWTH FACTOR RECEPTOR SIGNALING” (G1 Therapeutics, Inc., priority 2019, published 2022).
Read-outs that look alike come from different tables or passages of the source. Values belong to the molecule of their own block, whether it stands above or below them.

Key:
FGFR1 = FGFR1 (Homo sapiens, UniProt P11362)
FGFR2 = FGFR2 (Homo sapiens, UniProt P21802)
FGFR3 = FGFR3 (Homo sapiens, UniProt P22607)
FGFR3, sequence (P22607 23-806): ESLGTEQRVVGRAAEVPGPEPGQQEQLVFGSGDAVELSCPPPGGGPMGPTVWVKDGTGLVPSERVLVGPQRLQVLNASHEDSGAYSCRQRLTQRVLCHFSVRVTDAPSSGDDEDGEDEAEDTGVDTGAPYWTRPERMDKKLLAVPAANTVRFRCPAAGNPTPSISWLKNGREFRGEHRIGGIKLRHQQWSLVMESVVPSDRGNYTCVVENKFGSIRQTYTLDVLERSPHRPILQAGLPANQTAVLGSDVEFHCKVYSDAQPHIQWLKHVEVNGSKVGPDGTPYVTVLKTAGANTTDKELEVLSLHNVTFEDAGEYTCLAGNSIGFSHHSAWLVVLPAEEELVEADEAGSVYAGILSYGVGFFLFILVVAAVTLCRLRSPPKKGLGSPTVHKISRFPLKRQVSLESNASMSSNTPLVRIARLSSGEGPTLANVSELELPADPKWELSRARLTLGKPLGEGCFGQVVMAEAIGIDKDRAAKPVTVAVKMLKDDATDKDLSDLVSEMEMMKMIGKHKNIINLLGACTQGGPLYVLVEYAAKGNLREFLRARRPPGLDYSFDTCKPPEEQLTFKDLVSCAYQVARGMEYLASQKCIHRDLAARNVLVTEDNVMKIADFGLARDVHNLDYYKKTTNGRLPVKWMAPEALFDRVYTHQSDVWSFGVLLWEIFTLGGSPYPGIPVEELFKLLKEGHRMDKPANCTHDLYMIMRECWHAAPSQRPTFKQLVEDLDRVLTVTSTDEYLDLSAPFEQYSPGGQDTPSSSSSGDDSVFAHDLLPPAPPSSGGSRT

FGFR4 = FGFR4 (Homo sapiens, UniProt P22455)
FGFR4, sequence (P22455 22-802): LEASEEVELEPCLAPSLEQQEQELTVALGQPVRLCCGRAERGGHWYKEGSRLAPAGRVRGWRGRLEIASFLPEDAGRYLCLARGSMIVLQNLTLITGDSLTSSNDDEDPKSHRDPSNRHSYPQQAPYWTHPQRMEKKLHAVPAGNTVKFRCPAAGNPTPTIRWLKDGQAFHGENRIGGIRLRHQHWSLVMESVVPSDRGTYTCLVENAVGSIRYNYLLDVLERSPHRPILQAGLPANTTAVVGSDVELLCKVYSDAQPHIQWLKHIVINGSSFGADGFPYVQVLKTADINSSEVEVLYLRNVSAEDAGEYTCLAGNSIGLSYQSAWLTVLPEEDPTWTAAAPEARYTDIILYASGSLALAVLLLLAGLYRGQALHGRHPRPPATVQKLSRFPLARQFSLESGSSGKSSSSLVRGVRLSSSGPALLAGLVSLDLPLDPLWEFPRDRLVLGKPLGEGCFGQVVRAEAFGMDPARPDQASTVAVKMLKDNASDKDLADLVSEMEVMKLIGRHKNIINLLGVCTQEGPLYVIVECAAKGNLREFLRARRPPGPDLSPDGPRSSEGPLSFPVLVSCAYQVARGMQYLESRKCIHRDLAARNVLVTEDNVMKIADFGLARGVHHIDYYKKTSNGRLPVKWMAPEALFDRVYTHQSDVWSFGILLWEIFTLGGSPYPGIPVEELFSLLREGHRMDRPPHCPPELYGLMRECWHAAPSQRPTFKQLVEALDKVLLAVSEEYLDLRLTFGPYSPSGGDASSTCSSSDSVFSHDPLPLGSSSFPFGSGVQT

VEGFR2 = VEGFR2 (Homo sapiens, UniProt P35968); details: cell-free assays
VEGFR2, sequence (P35968 20-1356, species assumed): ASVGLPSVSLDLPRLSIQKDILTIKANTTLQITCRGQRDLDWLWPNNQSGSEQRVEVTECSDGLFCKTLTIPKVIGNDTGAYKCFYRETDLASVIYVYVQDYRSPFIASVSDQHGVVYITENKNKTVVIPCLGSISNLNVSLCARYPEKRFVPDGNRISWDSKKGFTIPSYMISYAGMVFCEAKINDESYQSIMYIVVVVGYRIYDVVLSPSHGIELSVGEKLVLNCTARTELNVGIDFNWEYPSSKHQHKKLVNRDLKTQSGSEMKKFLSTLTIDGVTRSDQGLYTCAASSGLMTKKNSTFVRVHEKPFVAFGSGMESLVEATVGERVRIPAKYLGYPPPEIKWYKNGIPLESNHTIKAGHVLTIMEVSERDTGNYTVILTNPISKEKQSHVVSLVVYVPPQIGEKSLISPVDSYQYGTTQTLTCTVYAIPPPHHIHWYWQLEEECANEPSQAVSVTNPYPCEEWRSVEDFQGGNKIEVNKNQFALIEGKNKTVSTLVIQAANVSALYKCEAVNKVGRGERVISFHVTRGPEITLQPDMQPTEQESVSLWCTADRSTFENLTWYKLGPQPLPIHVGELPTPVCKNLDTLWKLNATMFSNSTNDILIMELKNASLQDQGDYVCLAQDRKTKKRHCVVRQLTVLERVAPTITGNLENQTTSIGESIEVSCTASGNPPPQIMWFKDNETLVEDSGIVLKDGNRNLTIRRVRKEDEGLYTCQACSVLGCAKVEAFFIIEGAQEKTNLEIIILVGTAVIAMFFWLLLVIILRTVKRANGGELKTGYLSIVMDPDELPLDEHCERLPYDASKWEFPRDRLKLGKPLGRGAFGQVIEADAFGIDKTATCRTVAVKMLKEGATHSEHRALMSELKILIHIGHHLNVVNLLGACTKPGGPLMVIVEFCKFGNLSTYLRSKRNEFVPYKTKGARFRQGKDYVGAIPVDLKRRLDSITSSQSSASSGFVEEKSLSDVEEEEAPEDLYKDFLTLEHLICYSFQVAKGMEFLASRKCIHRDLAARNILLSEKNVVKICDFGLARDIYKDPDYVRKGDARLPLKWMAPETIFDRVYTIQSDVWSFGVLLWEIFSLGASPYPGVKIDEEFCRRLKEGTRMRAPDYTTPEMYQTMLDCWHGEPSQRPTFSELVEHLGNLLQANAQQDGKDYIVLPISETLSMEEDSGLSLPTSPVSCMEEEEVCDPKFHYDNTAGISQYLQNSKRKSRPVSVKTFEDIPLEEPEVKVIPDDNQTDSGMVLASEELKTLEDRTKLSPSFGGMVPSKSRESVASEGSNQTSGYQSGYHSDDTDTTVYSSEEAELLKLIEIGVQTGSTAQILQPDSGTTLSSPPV

[1] = system: FGFR1-amplified squamous NSCLC and FGFR3-mutant urothelial cancer; details: doses >=100 mg, phase I dose escalation trial

FGFR1, sequence (P11362 22-822): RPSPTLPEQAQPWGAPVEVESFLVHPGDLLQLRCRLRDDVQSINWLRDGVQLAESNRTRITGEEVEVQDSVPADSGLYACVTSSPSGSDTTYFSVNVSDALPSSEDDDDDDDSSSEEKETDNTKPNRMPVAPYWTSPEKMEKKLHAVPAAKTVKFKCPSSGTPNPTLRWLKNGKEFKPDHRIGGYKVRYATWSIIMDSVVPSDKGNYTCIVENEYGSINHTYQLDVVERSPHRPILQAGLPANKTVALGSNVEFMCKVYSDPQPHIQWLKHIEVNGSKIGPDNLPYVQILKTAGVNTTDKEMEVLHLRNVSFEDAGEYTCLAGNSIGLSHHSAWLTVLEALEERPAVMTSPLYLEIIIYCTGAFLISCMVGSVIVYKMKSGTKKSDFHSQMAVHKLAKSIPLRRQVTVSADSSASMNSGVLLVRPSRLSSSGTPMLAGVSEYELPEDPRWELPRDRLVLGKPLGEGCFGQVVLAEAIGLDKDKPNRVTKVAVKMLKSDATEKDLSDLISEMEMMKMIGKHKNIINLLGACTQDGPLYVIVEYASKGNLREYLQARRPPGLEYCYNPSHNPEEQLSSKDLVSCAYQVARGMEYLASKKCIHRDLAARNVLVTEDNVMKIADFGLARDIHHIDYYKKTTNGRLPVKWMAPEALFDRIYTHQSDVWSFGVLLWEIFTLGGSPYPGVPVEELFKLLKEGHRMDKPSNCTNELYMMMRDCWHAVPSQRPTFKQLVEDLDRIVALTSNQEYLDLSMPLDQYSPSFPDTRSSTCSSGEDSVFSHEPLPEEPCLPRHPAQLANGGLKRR
FGFR2, sequence (P21802 22-821): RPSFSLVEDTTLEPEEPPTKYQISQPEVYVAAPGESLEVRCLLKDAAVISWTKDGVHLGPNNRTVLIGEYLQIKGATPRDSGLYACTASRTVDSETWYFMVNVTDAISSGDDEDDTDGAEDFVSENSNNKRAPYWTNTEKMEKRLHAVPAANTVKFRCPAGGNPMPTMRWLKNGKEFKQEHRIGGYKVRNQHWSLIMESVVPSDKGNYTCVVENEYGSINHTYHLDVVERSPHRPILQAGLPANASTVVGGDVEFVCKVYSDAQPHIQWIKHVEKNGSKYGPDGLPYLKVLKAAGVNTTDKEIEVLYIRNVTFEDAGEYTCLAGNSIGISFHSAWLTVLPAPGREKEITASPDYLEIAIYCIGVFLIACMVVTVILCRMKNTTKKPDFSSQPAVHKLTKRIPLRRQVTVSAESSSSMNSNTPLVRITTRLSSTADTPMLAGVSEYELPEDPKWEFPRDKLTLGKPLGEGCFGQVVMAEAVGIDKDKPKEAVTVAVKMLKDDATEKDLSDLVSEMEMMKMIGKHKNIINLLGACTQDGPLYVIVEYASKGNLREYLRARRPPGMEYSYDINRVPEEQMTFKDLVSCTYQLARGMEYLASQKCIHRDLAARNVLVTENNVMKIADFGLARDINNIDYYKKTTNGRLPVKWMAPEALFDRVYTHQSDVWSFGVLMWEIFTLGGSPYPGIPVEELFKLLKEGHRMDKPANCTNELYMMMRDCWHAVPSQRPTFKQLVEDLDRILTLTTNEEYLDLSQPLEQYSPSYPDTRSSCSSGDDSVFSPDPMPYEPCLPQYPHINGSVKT

- IC50 (FGFR1): 3.09 nM
- IC50 (FGFR2): 4.3 nM
- IC50 (FGFR3): 27 nM
- IC50 (FGFR4; read-out: IC50 for FGFR4): 45.3 nM
SMILES: C=CC(=O)Nc1ccc(CN2C(=O)N(c3cc(OC)cc(OC)c3)Cc3cnc(Nc4ccc(N5CCN(C)CC5)cc4)nc32)cc1 [FIIN-2]

- IC50 (VEGFR2): 100 to 200 nM
SMILES: CCN(CC)CCCCNc1ncc2cc(-c3cc(OC)cc(OC)c3)c(NC(=O)NC(C)(C)C)nc2n1 [PD173074]

- IC50 (FGFR4; read-out: IC50, FGFR4): 320 nM
SMILES: CNC(=O)c1cccc2cc(Oc3ccnc(NC(=O)c4ccc(N5CCN(CCO)CC5)cc4)c3)ccc12 [SOMCL-085]

SMILES: CCN1CCN(c2ccc(Nc3cc(N(C)C(=O)Nc4c(Cl)c(OC)cc(OC)c4Cl)ncn3)cc2)CC1 [infigratinib]
- confirmed partial responses [1]: six
